# How the values were obtained:
# Format in all cases: in vivo
# [1] = system: paraquat resistant Lolium biotype RL 1; experiment: Greenhouse visual assessment of percentage control, Example 1; conditions: 14 days after applying
# Protocol: (§1) Aqueous herbicidal compositions comprising water and paraquat alone at various application rates, glufosinate ammonium alone at various application rates and compositions containing water and combinations of these two herbicides were applied over certain paraquat resistant plants. Ammonium sulphate was included in all of the compositions at a concentration of 1% w/v. The effectiveness of the composition in controlling the plants was assessed visually 14 days after applying the herbicide. The assessment was made as a percentage control −0% representing no damage and 100% representing death of all the plants. The plants used were two paraquat resistant Lolium biotypes (referred to as RL 1 and RL 2, collected in South Africa). The plants were grown in a greenhouse to the two-three true leaves stage before the herbicide was applied. Three replicates of each treatment were carried out.
# (§2) The results were analysed using the Colby formula which generates an expected level of control from the results obtained by using the individual components alone. This was compared with the actual level of control. The Colby formula predicts that the expected percentage level of control E for a particular combination of components is obtained as follows, in which P1 and P2 are the levels of control obtained by using the components alone
# (§3) The figures given in the Synergy column in the table below are the difference between the predicted level of control and the actual level of control. A figure of zero means that the actual result is as predicted by the Colby equation. Any number above zero represents evidence of synergy. Numbers below zero may represent antagonism.
# [2] = system: paraquat resistant Lolium biotype RL 2; experiment: as above; conditions: 14 days after applying
# Protocol: as §1, §2, §3
# [3] = system: paraquat resistant ryegrass (Lolium rigidum); experiment: Glasshouse study, visual percentage control, Example 2; conditions: Paraquat Resistant Population, 28 days after applying
# Protocol: (§4) A glasshouse study was conducted with two biotypes of ryegrass (Lolium rigidum), one paraquat resistant and the other paraquat susceptible. The plants (3 leaf stage) were planted in pots at a density of approximately 14,000 plants/m^2 to simulate field infestation levels. The treatments were based on commercial formulations of paraquat and glufosinate were diluted in water including the adjuvants AMS (5%) and Agral 90 (0.25%). The treatments were applied to the plants in a spray volume equivalent to 400 lts/ha. Each treatment was replicated three times. The effectiveness of the treatments in controlling the plants was assessed visually 28 days after applying the herbicide. The assessment was made as a percentage control −0% representing no damage and 100% representing death of all the plants.
# [4] = system: paraquat susceptible ryegrass (Lolium rigidum); experiment: as above; conditions: Paraquat Susceptible Population, 28 days after applying
# Protocol: as §4
# [5] = system: paraquat resistant ryegrass (Lolium rigidum); experiment: Glasshouse test of sequential (split) application, visual percentage control, Example 3; conditions: 28 days after the initial application
# Protocol: A glasshouse test was conducted to examine the effect of applying the products sequentially (ie. in a split application), using paraquat resistant ryegrass (Lolium rigidum) plants. The plants were planted in pots and at the time of the initial application they were at the 4½ leaf stage. The treatments were based on commercial formulations of paraquat and glufosinate were diluted in water including the adjuvants AMS (5%) and Agral 90 (0.25%). The treatments' were applied to the plants in a spray volume equivalent to 400 lts/ha. Each treatment was replicated 3 times. The effectiveness of the treatments in controlling the plants was assessed visually 28 days after the initial application date. The assessment was made as a percentage control −0% representing no damage and 100% representing death of all the plants.
# [6] = glufosinate ammonium 50 g/ha alone
# [7] = glufosinate ammonium 100 g/ha alone
# [8] = glufosinate ammonium 200 g/ha alone
# [9] = glufosinate ammonium 400 g/ha alone
# [10] = glufosinate ammonium 600 g/ha alone
compound,measurement,setting,value
"CP(=O)(O)CCC(N)C(=O)O (racemic) [glufosinate ammonium, ammonium 4-[hydrox(methyl)phosphinoyl]-DL-homoalaninate]",Average % control of RL 1,[1]; [6],0%
same,Average % control of RL 1,[1]; [7],0%
same,Average % control of RL 1,[1]; [8],3%
same,Average % control of RL 1,[1]; [9],2%
same,Average % control of RL 1,[1]; [10],78%
same,Average % control of RL 2,[2]; [6],0%
same,Average % control of RL 2,[2]; [7],0%
same,Average % control of RL 2,[2]; [8],2%
same,Average % control of RL 2,[2]; [9],33%
same,Average % control of RL 2,[2]; [10],89%
same,Percentage Control,[3]; Glufosinate 300 g ai/ha,44%
same,Percentage Control,[4]; Glufosinate 300 g ai/ha,85%
same,% Control,[5]; 150 g ai/ha,0%
same,% Control,[5]; 200 g a/ha,33%
same,% Control,[5]; 300 g ai/ha,83%
"C[n+]1ccc(-c2cc[n+](C)cc2)cc1 [Paraquat, 1,1′-dimethyl-4,4′-bipyridylium cation]",Average % control of RL 1,[1]; paraquat 10 g/ha alone,0%
same,Average % control of RL 1,[1]; paraquat 20 g/ha alone,0%
same,Average % control of RL 1,[1]; paraquat 60 g/ha alone,0%
same,Average % control of RL 1,[1]; paraquat 80 g/ha alone,17%
same,Average % control of RL 1,[1]; paraquat 400 g/ha alone,33%
same,Average % control of RL 1,[1]; paraquat 1200 g/ha alone,33%
same,Average % control of RL 1,[1]; paraquat 2000 g/ha alone,98%
same,Average % control of RL 1,[1]; paraquat 4000 g/ha alone,100%
same,Average % control of RL 2,[2]; paraquat 10 g/ha alone,0%
same,Average % control of RL 2,[2]; paraquat 20 g/ha alone,0%
same,Average % control of RL 2,[2]; paraquat 60 g/ha alone,0%
same,Average % control of RL 2,[2]; paraquat 80 g/ha alone,0%
same,Average % control of RL 2,[2]; paraquat 400 g/ha alone,0%
same,Average % control of RL 2,[2]; paraquat 1200 g/ha alone,7%
same,Average % control of RL 2,[2]; paraquat 2000 g/ha alone,3%
same,Average % control of RL 2,[2]; paraquat 4000 g/ha alone,42%
same,Percentage Control,[3]; Paraquat 600 g ai/ha,29%
same,Percentage Control,[4]; Paraquat 600 g ai/ha,100%
same,% Control,[5]; 600 g ai/ha,58%

# — patent US20090305890A1, “METHOD OF CONTROLLING PLANTS” (SYNGENTA LIMITED, priority 2005, published 2009)
